{"source": "patent US5244916A", "about": "“Inhibition of respiratory burst using posttranslational modification inhibitors” (The Scripps Research Institute, priority 1992, dated 1993)", "key": {"[1]": {"test_system": "HL-60 cells (NADPH oxidase / respiratory burst)", "assay": "O2- formation by DMSO-differentiated HL-60 cells, FMLP-stimulated (SOD-sensitive cytochrome c reduction)", "type": "cell-based", "details": "for activity at 0.4 µM / activity at 2 µM / activity at 4 µM / activity at 10 µM: Homo sapiens, HL-60; for activity at 0.4 µM: 0.4 μM compactin; for activity at 2 µM: 2 μM compactin; for activity at 4 µM: 4 μM compactin; for activity at 10 µM: 10 μM compactin", "experimental": "(§1) HL-60 cells were maintained in stationary culture in RPMI 1640 medium (Gibco, Grand Island, NY) containing 10% fetal bovine serum at 37° C in an atmosphere of 95 air and 5% CO2. The cells (about 8×10^5 /ml) were differentiated into neutrophil-like cells by treatment with 1.3% DMSO for six days (Harris, et al., J. Leukocyte Biol. 37: 407-422 (1985)). The cells were treated with the indicated levels of compactin or lovastatin by addition of a 1,000-fold concentrated stock solution to the appropriate concentration on day 4 of differentiation. […] In studies of the protective effect of mevalonic acid, the compound was added as the mevalonolactone (Sigma Chemical Co., St. Louis, MO) at a concentration of 1 mM to the cell culture on days 4 to 6. Similarly, cholesterol was added in the form of LDL prepared according to the method of Curtiss and Edgington (Curtiss, et al., J. Biol. Chem. 257: 15213-15221 (1991)) at a final concentration of 50 μg/ml; ubiquinone (Sigma Chemical Co., St. Louis, MO) was added as Coenzyme Q-10 at a final concentration of 0.5 mM; and dolichol (Sigma Chemical Co., St. Louis, MO) was added as a dispersion in phosphatidylcholine at a final concentration of 0.5 mM (Cutts, et al., J. Cell Physiol. 139: 550-555 (1989)).\n(§2) O2 --formation by HL-60 cells was assessed by the SOD-sensitive reduction of cytochrome c. Cells were suspended at 1×10^7 /ml in Krebs-Ringer Hepes buffer with 5.5 mM glucose (KRHG) and 50-100μl of cells were added to a cuvette containing 100 μM cytochrome c (type III, Sigma Chemical Co., St. Louis, MO), ±300 μg/ml SOD (Sigma Chemical Co., St. Louis, MO) in 700-750 μl KRHG. Cytochalasin b (Sigma Chemical Co., St. Louis, MO) was added to a final concentration of 5 μg/ml, and the cells were incubated at 37° C. for five minutes while a stable baseline at a wavelength of 550 nm was obtained. O2 --formation was initiated by the addition of 1 μM N-formylmethionylleucylphenylalanine (FMLP; Sigma Chemical Co., St. Louis, MO) or 1μg/ml phorbol myristate acetate (PMA; Sigma Chemical Co., St. Louis, MO). Cytochrome c reduction at 550nm was continuously monitored and maximal rate and extent of the reaction calculated."}, "[2]": {"test_system": "N-formyl peptide receptor", "assay": "HL-60 differentiation: N-formyl peptide receptor expression (flow cytometry)", "type": "cell-based", "details": "compactin-treated cells", "experimental": "HL-60 cells were maintained in stationary culture in RPMI 1640 medium (Gibco, Grand Island, NY) containing 10% fetal bovine serum at 37° C in an atmosphere of 95 air and 5% CO2. The cells (about 8×10^5 /ml) were differentiated into neutrophil-like cells by treatment with 1.3% DMSO for six days (Harris, et al., J. Leukocyte Biol. 37: 407-422 (1985)). The cells were treated with the indicated levels of compactin or lovastatin by addition of a 1,000-fold concentrated stock solution to the appropriate concentration on day 4 of differentiation. […]\nCell viability was determined by uptake of propidium iodide (537-059; Calbiochem-Behring Corp., La Jolla, CA), detected from the emission fluorescence at 625/35 nm using a DM560 dichronic mirror (Krishan, J. Cell. Biol. 66: 188-192 (1975)). Expression of N-formyl peptide receptor was determined using fluorescein-labeled N-CHONle-Leu-Phe-Nle-Tyr-Lys (Molecular Probes, Inc., Eugene, OR) essentially by the method of Sklar and Finney (Sklar and Finney, Cytometry 3: 161-165 (1982)). Specificity of ligand binding was determined in the presence of 4 mM unlabeled T-boc peptide. […]\nHL-60 differentiation was assessed using two distinct markers: appearance of N-formyl peptide receptors and appearance of the CD14 antigen."}, "[3]": {"test_system": "HL-60 cells (NADPH oxidase / respiratory burst)", "assay": "Prevention of compactin-inhibition of FMLP-stimulated O2- formation in HL-60 cells by mevalonic acid and other supplements", "type": "cell-based", "experimental": "as §1, §2\nInhibition of protein isoprenylation can interfere with LMWG function without inhibiting overall cellular function (Maltese, supra (1990)). Since compactin inhibits at the enzymatic step preceding mevalonic acid synthesis, one should be able to reverse effects of compactin due specifically to inhibition of this pathway by addition of exogenous mevalonic acid."}, "cytochrome b558": {"test_system": "cytochrome b558", "assay": "Cytochrome b558 levels in HL-60 cells by Western blot", "type": "cell-based", "details": "10 μM compactin"}, "[4]": {"test_system": "peripheral blood neutrophils", "assay": "Respiratory burst of peripheral blood neutrophils in response to FMLP after short-term compactin", "type": "cell-based", "details": "10 μM, up to two hours"}, "NADPH oxidase": {"test_system": "NADPH oxidase", "assay": "Cell-free oxidase system with compactin included in the assay cuvette", "type": "biochemical", "details": "10 μM compactin in the assay cuvette", "experimental": "To assess O2 --formation using HL-60 membrane and cytosol, the cell-free system of Curnutte, et al. (Curnutte, et al., J. Biol. Chem. 262: 5563-5569 (1987); Curnutte, et al.,m J. Biol. Chem. 262: 6450-6452 (1987)) was utilized. Briefly, HL-60 membrane pellet (50-60μg) or human neutrophil membrane (6.35×10^6 cell equivalents) was added to a cuvette containing 100 μM cytochrome c (type III, Sigma Chemical Co., St. Louis, MO), 6.25 mM MgCl2, 93 mM KCl, 2.8 mM NaCl, 9.3 mM Pipes pH 7.3, 0.8mM ATP, 0.16 mM NADPH, 10 μM GTPgammaS, 225 μg HL-60 cytosol, or 250 μg ([…]; cell equivalents) of human neutrophil cytosol and ±300μg/ml SOD (Sigma Chemical Co., St. Louis, MO). After a three-minute equilibration at 25° C., the formation of O2 --was initiated by the addition of 100 μM SDS. O2 --generation was monitored continuously as the SOD-sensitive reduction of cytochrome c at 550 nm. Human neutrophil plasma membranes (gamma-GSP) and cytosol (GSS) were prepared as described in (Curnutte, et al., suora (1987)).\nTreatment of peripheral blood neutrophils with 10 μM compactin for up to two hours produced no effect upon the ability of these cells to support a respiratory burst in response to FMLP. […] It seems unlikely that both compounds would randomly produce similar nonspecific toxic effects on the NADPH oxidase."}, "[5]": {"details": "read-out: FMLP-stimulated O2- formation, Extent"}, "[6]": {"details": "read-out: FMLP-stimulated O2- formation, Rate"}, "[7]": {"details": "4 μM compactin + 1 mM mevalonate"}, "[8]": {"details": "10 μM compactin + 50 μg/ml cholesterol, n = 2"}, "[9]": {"details": "10 μM compactin + 1 mM mevalonate"}}, "note": "Read-outs that look alike come from different tables or passages of the source."}
{"smiles": "CC[C@H](C)C(=O)O[C@H]1CCC=C2C=C[C@H](C)[C@H](CC[C@@H]3C[C@@H](O)CC(=O)O3)[C@H]21", "note": "[compactin]", "values": [{"measurement": "activity at 0.4 µM", "setting": "[1]; [5]", "result": "71 ± 10", "unit": "%"}, {"measurement": "activity at 0.4 µM", "setting": "[1]; [6]", "result": "77 ± 10", "unit": "%"}, {"measurement": "activity at 2 µM", "setting": "[1]; [5]", "result": "36 ± 11", "unit": "%"}, {"measurement": "activity at 2 µM", "setting": "[1]; [6]", "result": "47 ± 11", "unit": "%"}, {"measurement": "activity at 4 µM", "setting": "[1]; [5]", "result": "22 ± 1", "unit": "%"}, {"measurement": "activity at 4 µM", "setting": "[1]; [6]", "result": "39 ± 4.1", "unit": "%"}, {"measurement": "activity at 10 µM", "setting": "[1]; [5]", "result": "12 ± 2.1", "unit": "%"}, {"measurement": "activity at 10 µM", "setting": "[1]; [6]", "result": "15 ± 2.6", "unit": "%"}, {"measurement": "inhibition of O2- formation in response to FMLP", "setting": "[1]; various concentrations", "result": "dose-dependent inhibition"}, {"measurement": "N-formyl peptide receptor expression", "setting": "[2]", "result": "normal"}, {"measurement": "FMLP-stimulated O2- formation, Extent", "setting": "[3]; 4 μM compactin", "result": "28 ± 3.5 % of control"}, {"measurement": "FMLP-stimulated O2- formation, Rate", "setting": "[3]; 4 μM compactin", "result": "43 ± 5.0 % of control"}, {"measurement": "FMLP-stimulated O2- formation, Extent", "setting": "[3]; [7]", "result": "96 ± 8.0 % of control"}, {"measurement": "FMLP-stimulated O2- formation, Rate", "setting": "[3]; [7]", "result": "97 ± 4.0 % of control"}, {"measurement": "FMLP-stimulated O2- formation, Extent", "setting": "[3]; 10 μM compactin", "result": "13 ± 0.4 % of control"}, {"measurement": "FMLP-stimulated O2- formation, Rate", "setting": "[3]; 10 μM compactin", "result": "19 ± 3.9 % of control"}, {"measurement": "FMLP-stimulated O2- formation, Extent", "setting": "[3]; [8]", "result": "22 % of control"}, {"measurement": "FMLP-stimulated O2- formation, Rate", "setting": "[3]; [8]", "result": "28 % of control"}, {"measurement": "FMLP-stimulated O2- formation, Extent", "setting": "[3]; [9]", "result": "114 ± 1.6 % of control"}, {"measurement": "FMLP-stimulated O2- formation, Rate", "setting": "[3]; [9]", "result": "115 ± 7.6 % of control"}, {"measurement": "expression of cytochrome b558", "setting": "cytochrome b558", "result": "normal"}, {"measurement": "effect on respiratory burst of peripheral blood neutrophils", "setting": "[4]", "result": "no effect"}, {"measurement": "inhibition of O2- formation, cell-free", "setting": "NADPH oxidase", "result": "did not inhibit"}]}
